# Patent US20250242064A1, “CXCR4-TARGETING COMPOUNDS, AND METHODS OF MAKING AND USING THE SAME” (PROVINCIAL HEALTH SERVICES AUTHORITY, priority 2022, published 2025)
# Where a SMILES comes first, the peptide text is derived from it. Bridges are numbered along the chain shown (N, C = ends). Side-chain parts run from the residue outwards. [ ]: non-standard residue; d: D form. The star is where a group is joined. X4 = O=C(O)CN1CCN(CC(=O)O)CCN(CC(=O)N[C@@H](CS(=O)(=O)O)C(=O)NCCCC[C@H](NC(=O)CNC(=O)CCCc2ccc(Cl)cc2)C(=O)*)CCN(CC(=O)O)CC1; X6 = COc1ccc(CCCC(=O)NCCCC[C@H](NC(=O)[C@H](CS(=O)(=O)O)NC(=O)CN2CCN(CC(=O)O)CCN(CC(=O)O)CCN(CC(=O)O)CC2)C(=O)*)cc1; X7 = COc1ccc(CCCC(=O)NCCCC[C@H](NC(=O)CN2CCN(CC(=O)O)CCN(CC(=O)O)CCN(CC(=O)O)CC2)C(=O)*)cc1; 2Nal = N[C@@H](Cc1ccc2ccccc2c1)C(=O)O; Lys(iPr) = CC(C)NCCCC[C@H](N)C(=O)O; Cya = N[C@@H](CS(=O)(=O)O)C(=O)O
# Assay: in vivo
# Parameters: species or system mice
# Conditions: male, NOD.Cg-Rag1tm1Mom Il2rgtm1Wjl/SzJ (NRG), mouse, iv, total radioactivity
# Experimental: The Z138 Mantle cell lymphoma cell line was purchased from the American Type Culture Collection (ATCC©CRL-3001). The cell line was cultured in a 5% CO2 atmosphere at 37° C. in a humidified incubator with IMDM medium supplemented with 10% fetal bovine serum, 100 I.U./mL penicillin, and 100 μg/mL streptomycin.
# [^68Ga]GaCl3 was eluted from an iThemba Labs generator with a total of 4 mL of 0.1 M HCl. The eluted [^68Ga]GaCl3 solution was added to 2 mL of concentrated HCl. This radioactive mixture was then added to a DGA resin column and washed with 3 mL of 5 M HCl. The column was then dried with air and the [^68Ga]GaCl3 (0.10-0.50 GBq) was eluted with 0.5 mL of water into a vial containing a solution of the unlabeled precursor (25 μg) in 0.7 mL HEPES buffer (2 M, pH 5.3). The reaction mixture was heated in a microwave oven (Danby; DMW7700WDB) for 1 min at power setting 2. The mixture was purified by semi-prep HPLC and quality control was performed via analytical HPLC with the co-injection of the unlabeled standard with a one-twelfth of the radiotracer. Radiochemical yields (decay-corrected) were >50% and radiochemical purities were >95%.
# Animal experiments were performed in accordance with guidelines established by the Canadian Council on Animal Care, under a research protocol approved by the Animal Ethics Committee of the University of British Columbia. For all studies, male NOD.Cg-Rag1tm1Momll2rgtm1Wjl/SzJ (NRG) mice were used and cells injected in a 100 μL solution of 1:1 ratio of PBS/Matrigel. For preclinical imaging and biodistribution studies, 5×10^6 cells of Z138, cells were subcutaneously inoculated on the left or right flank and tumors were grown to a size of 200-300 mm^3. […]
# Under isoflurane anesthesia (2-2.5% isoflurane in 2 L/min 02), mice were injected intravenously with [^68Ga]Ga-BL34L6 or [^68Ga]Ga-BL34L7. Mice were euthanized by CO2 inhalation after anesthesia with isoflurane. Tissues were harvested, washed in PBS, patted dry, weighed, and then assayed radioactivity on a gamma counter. Counted radioactivities were converted to percentage injected dose per gram of tissue (% ID/g) using a calibration curve.
# [1] = Biodistribution: Small Intestine
tissue uptake at 1 h (Biodistribution: Adrenals) [%ID/g],tissue uptake at 1 h (Biodistribution: Blood) [%ID/g],tissue uptake at 1 h (Biodistribution: Bone) [%ID/g],tissue uptake at 1 h (Biodistribution: Brain) [%ID/g],tissue uptake at 1 h (Biodistribution: Heart) [%ID/g],tissue uptake at 1 h (Biodistribution: Kidneys) [%ID/g],tissue uptake at 1 h (Biodistribution: Liver) [%ID/g],tissue uptake at 1 h (Biodistribution: Lungs) [%ID/g],tissue uptake at 1 h (Biodistribution: Muscle) [%ID/g],tissue uptake at 1 h (Biodistribution: Pancreas) [%ID/g],tissue uptake at 1 h [1] [%ID/g],tissue uptake at 1 h (Biodistribution: Spleen) [%ID/g],tissue uptake at 1 h (Biodistribution: Stomach) [%ID/g],tissue uptake at 1 h (Biodistribution: Testes) [%ID/g],tissue uptake at 1 h (Biodistribution: Z138 Tumor) [%ID/g],tissue to tissue ratio at 1 h (Ratio Tumor-to-Blood),tissue to tissue ratio at 1 h (Ratio Tumor-to-Bone),tissue to tissue ratio at 1 h (Ratio Tumor-to-Kidney),tissue to tissue ratio at 1 h (Ratio Tumor-to-Muscle),tissue to tissue ratio at 1 h (Ratio Tumor-to-Pancreas),Compound,other results
0.29,0.83,0.14,0.01,0.22,2.07,1.6,0.99,0.12,0.12,0.24,0.45,0.05,0.26,8.92,11.6,66.5,4.36,84.6,75.3,"COc1ccc(CCCC(=O)NCCCC[C@H](NC(=O)CN2CCN(CC(=O)O)CCN(CC(=O)O)CCN(CC(=O)O)CC2)C(=O)N[C@@H](CS(=O)(=O)O)C(=O)NCCCC[C@@H]2NC(=O)CC[C@H](C(=O)N[C@@H](CCCCNC(C)C)C(N)=O)NC(=O)[C@@H](C)NC(=O)[C@H](Cc3ccc4ccccc4c3)NC(=O)[C@@H](CCCNC(=N)N)NC(=O)[C@H](CCCCNC(C)C)NC(=O)[C@H](Cc3ccc(O)cc3)NC2=O)cc1 [[68Ga]Ga-BL34L6, metal not drawn] (K([Cya-X7])Y[Lys(iPr)][dR][2Nal][dA][dE][Lys(iPr)]-NH2; lactam N-7)",
2.62,13.3,1.04,0.19,3.11,5.01,2.9,9.23,0.99,1.24,1.31,2.3,0.49,1.95,12.2,0.93,12.7,2.52,12.8,10.1,"CC(C)NCCCC[C@H](NC(=O)[C@H]1CCC(=O)N[C@@H](CCCCNC(=O)[C@H](CCCCNC(=O)[C@H](CS(=O)(=O)O)NC(=O)CN2CCN(CC(=O)O)CCN(CC(=O)O)CCN(CC(=O)O)CC2)NC(=O)CNC(=O)CCCc2ccc(Cl)cc2)C(=O)N[C@@H](Cc2ccc(O)cc2)C(=O)N[C@@H](CCCCNC(C)C)C(=O)N[C@H](CCCNC(=N)N)C(=O)N[C@@H](Cc2ccc3ccccc3c2)C(=O)N[C@H](C)C(=O)N1)C(N)=O [[68Ga]Ga-BL34T1, metal not drawn] (K(X4)Y[Lys(iPr)][dR][2Nal][dA][dE][Lys(iPr)]-NH2; lactam N-7)",tissue uptake at 3 h (Biodistribution: Adrenals): 1.93 %ID/g; tissue uptake at 3 h (Biodistribution: Blood): 7.55 %ID/g; tissue uptake at 3 h (Biodistribution: Bone): 1.28 %ID/g; tissue uptake at 3 h (Biodistribution: Brain): 0.16 %ID/g; tissue uptake at 3 h (Biodistribution: Heart): 1.91 %ID/g; tissue uptake at 3 h (Biodistribution: Kidneys): 4.15 %ID/g; tissue uptake at 3 h (Biodistribution: Liver): 3.02 %ID/g; tissue uptake at 3 h (Biodistribution: Lungs): 5.9 %ID/g; tissue uptake at 3 h (Biodistribution: Muscle): 0.73 %ID/g; tissue uptake at 3 h (Biodistribution: Pancreas): 0.92 %ID/g; tissue uptake at 3 h [1]: 0.89 %ID/g; tissue uptake at 3 h (Biodistribution: Spleen): 2.08 %ID/g; tissue uptake at 3 h (Biodistribution: Stomach): 0.44 %ID/g; tissue uptake at 3 h (Biodistribution: Testes): 1.71 %ID/g; tissue uptake at 3 h (Biodistribution: Z138 Tumor): 23.7 %ID/g; tissue to tissue ratio at 3 h (Ratio Tumor-to-Blood): 3.17; tissue to tissue ratio at 3 h (Ratio Tumor-to-Bone): 21.9; tissue to tissue ratio at 3 h (Ratio Tumor-to-Kidney): 5.78; tissue to tissue ratio at 3 h (Ratio Tumor-to-Muscle): 32.6; tissue to tissue ratio at 3 h (Ratio Tumor-to-Pancreas): 26
0.7,0.77,0.56,0.03,0.45,5.66,12.5,4.14,0.19,0.21,0.58,2.44,0.12,0.33,7.97,10.4,15.5,1.41,41.8,38.1,"CC(C)NCCCC[C@H](NC(=O)[C@@H]1CCSc2c3cccc([N+](=O)[O-])c3cn2[C@@H](CCCCNC(=O)[C@H](CS(=O)(=O)O)NC(=O)CN2CCN(CC(=O)O)CCN(CC(=O)O)CCN(CC(=O)O)CC2)C(=O)CC(Cc2ccc(O)cc2)C(=O)N[C@@H](CCCCNC(C)C)C(=O)N[C@H](CCCNC(=N)N)C(=O)N[C@@H](Cc2ccc3ccccc3c2)C(=O)N[C@H](C)C(=O)N1)C(N)=O (stereo partly shown) [[^68Ga]Ga-3NOPA-BL34L2, metal not drawn]",
0.52,1.73,0.4,0.04,0.41,2.45,1.24,1.75,0.14,0.23,0.34,0.59,0.09,0.44,11.1,6.5,37.2,4.51,87.1,9.07,"COc1ccc(CCCC(=O)NCCCC[C@H](NC(=O)[C@H](CS(=O)(=O)O)NC(=O)CN2CCN(CC(=O)O)CCN(CC(=O)O)CCN(CC(=O)O)CC2)C(=O)NCCCC[C@@H]2NC(=O)CC[C@H](C(=O)N[C@@H](CCCCNC(C)C)C(N)=O)NC(=O)[C@@H](C)NC(=O)[C@H](Cc3ccc4ccccc4c3)NC(=O)[C@@H](CCCNC(=N)N)NC(=O)[C@H](CCCCNC(C)C)NC(=O)[C@H](Cc3ccc(O)cc3)NC2=O)cc1 [[^68Ga]Ga-BL34L7, metal not drawn] (K(X6)Y[Lys(iPr)][dR][2Nal][dA][dE][Lys(iPr)]-NH2; lactam N-7)",
